In patent US20160271263A1 (Novo Nordisk A/S, priority 2010, published 2016) one finds EC50 data, which are given here for seven compounds.

SMILES strings stand for the structures. Numbered stars: 1 amine (or outer) side, 2 acyl side, 3 side chain; on linkers, the order of the positions; unused ones are H or OH. Square brackets hold non-standard residues; d marks the D form. Side chains are listed from the residue outwards. Peptide text beside a SMILES is read from it. * marks the point of attachment. C18 diacid = O=C(O)CCCCCCCCCCCCCCCCC(=O)*; γGlu = O=C(O)[C@H](CCC(=O)[*:2])N[*:1]; AEEA = NCCOCCOCC(=O)O

Chain of glucagon receptor (P47871 26-477): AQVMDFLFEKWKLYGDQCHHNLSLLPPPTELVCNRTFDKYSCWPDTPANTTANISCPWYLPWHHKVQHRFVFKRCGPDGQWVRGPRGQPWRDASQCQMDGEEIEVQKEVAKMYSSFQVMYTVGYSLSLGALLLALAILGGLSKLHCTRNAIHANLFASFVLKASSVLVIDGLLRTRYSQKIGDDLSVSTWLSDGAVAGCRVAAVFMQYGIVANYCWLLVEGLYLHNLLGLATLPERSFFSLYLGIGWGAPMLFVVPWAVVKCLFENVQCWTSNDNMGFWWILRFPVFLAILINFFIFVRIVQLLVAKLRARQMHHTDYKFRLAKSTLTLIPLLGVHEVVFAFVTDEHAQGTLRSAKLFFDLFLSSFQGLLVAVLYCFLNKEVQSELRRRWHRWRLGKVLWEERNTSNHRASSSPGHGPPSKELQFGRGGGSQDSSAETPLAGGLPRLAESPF

This test concerns the target glucagon receptor (Homo sapiens, UniProt P47871). Briefly: cell-based.
In the case of `CC(C)C[C@H](NC(=O)[C@H](Cc1ccc(O)cc1)NC(=O)[C@H](CCCCN)NC(=O)[C@H](CO)NC(=O)[C@H](Cc1ccc(O)cc1)NC(=O)[C@H](CC(=O)O)NC(=O)[C@H](CO)NC(=O)[C@@H](NC(=O)[C@H](Cc1ccccc1)NC(=O)[C@@H](NC(=O)CNC(=O)[C@H](CCC(N)=O)NC(=O)[C@H](CO)NC(=O)[C@@H](N)Cc1c[nH]cn1)[C@@H](C)O)[C@@H](C)O)C(=O)N[C@@H](CC(=O)O)C(=O)N[C@@H](CO)C(=O)N[C@@H](CCCCN)C(=O)N[C@@H](CCCNC(=N)N)C(=O)N[C@@H](C)C(=O)N[C@@H](CCC(N)=O)C(=O)N[C@@H](CCC(=O)O)C(=O)N[C@@H](Cc1ccccc1)C(=O)N[C@H](C(=O)N[C@@H](CCCCNC(=O)COCCOCCNC(=O)COCCOCCNC(=O)CC[C@H](NC(=O)CCCCCCCCCCCCCCCCC(=O)O)C(=O)O)C(=O)N[C@@H](Cc1c[nH]c2ccccc12)C(=O)N[C@@H](CC(C)C)C(=O)N[C@@H](CC(C)C)C(=O)N[C@@H](CC(N)=O)C(=O)N[C@H](C(N)=O)[C@@H](C)O)C(C)C` [Example 35, N^ε24-([2-[2-[2-[[2-[2-[2-[[(4S)-5-hydroxy-4-[(18-hydroxy-18-oxooctadecanoyl)amino]-5-oxopentanoyl]amino]ethoxy]ethoxy]acetyl]amino]ethoxy]ethoxy]acetyl])[Lys^17,Glu^21, Lys^24, Leu^27]Glucagon peptide amide] (H-HSQGTFTSDYSKYLDSKRAQEFVK([AEEA-AEEA-γGlu-C18 diacid])WLLNT-NH2; N-terminus assumed), it took 0.016 nM to reach a half-maximal effect (EC50).
The figure for `CC(C)C[C@H](NC(=O)[C@H](Cc1ccc(O)cc1)NC(=O)[C@H](CCCCN)NC(=O)[C@H](CO)NC(=O)[C@H](Cc1ccc(O)cc1)NC(=O)[C@H](CC(=O)O)NC(=O)[C@H](CO)NC(=O)[C@@H](NC(=O)[C@H](Cc1ccccc1)NC(=O)[C@@H](NC(=O)CNC(=O)[C@H](CCC(N)=O)NC(=O)[C@H](CO)NC(=O)[C@@H](N)Cc1c[nH]cn1)[C@@H](C)O)[C@@H](C)O)C(=O)N[C@@H](CC(=O)O)C(=O)N[C@@H](CO)C(=O)N[C@@H](CCCNC(=N)N)C(=O)N[C@@H](CCCNC(=N)N)C(=O)N[C@@H](C)C(=O)N[C@@H](CCC(=O)O)C(=O)N[C@@H](CCC(=O)O)C(=O)N[C@@H](Cc1ccccc1)C(=O)N[C@H](C(=O)N[C@@H](CCCCNC(=O)CC[C@H](NC(=O)CC[C@H](NC(=O)COCCOCCNC(=O)CC[C@H](NC(=O)CCCCCCCCCCCCCCCCC(=O)O)C(=O)O)C(=O)O)C(=O)O)C(=O)N[C@@H](Cc1c[nH]c2ccccc12)C(=O)N[C@@H](CC(C)C)C(=O)N[C@@H](CC(C)C)C(=O)N[C@@H](CO)C(=O)N[C@H](C(=O)O)[C@@H](C)O)C(C)C` [Example 93, N^ε24-[(4S)-4-carboxy-4-[[(4S)-4-carboxy-4-[[2-[2-[2-[[(4S)-4-carboxy-4-(17-carboxyheptadecanoylamino)butanoyl]amino]ethoxy]ethoxy]acetyl]amino]butanoyl]amino]butanoyl]-[Glu^20,Glu^21,Lys^24,Leu^27,Ser^28]-Glucagon] (H-HSQGTFTSDYSKYLDSRRAEEFVK([γGlu-γGlu-AEEA-γGlu-C18 diacid])WLLST-OH) is 0.12 nM.
The figure for `CC(C)C[C@H](NC(=O)[C@H](Cc1ccc(O)cc1)NC(=O)[C@H](CCCCN)NC(=O)[C@H](CO)NC(=O)[C@H](Cc1ccc(O)cc1)NC(=O)[C@H](CC(=O)O)NC(=O)[C@H](CO)NC(=O)[C@@H](NC(=O)[C@H](Cc1ccccc1)NC(=O)[C@@H](NC(=O)CNC(=O)[C@H](CCC(N)=O)NC(=O)[C@H](CO)NC(=O)[C@@H](N)Cc1c[nH]cn1)[C@@H](C)O)[C@@H](C)O)C(=O)N[C@@H](CC(=O)O)C(=O)N[C@@H](CO)C(=O)N[C@@H](CCCCN)C(=O)N[C@@H](CCCNC(=N)N)C(=O)N[C@@H](C)C(=O)N[C@@H](CCC(N)=O)C(=O)N[C@@H](CCC(=O)O)C(=O)N[C@@H](Cc1ccccc1)C(=O)N[C@H](C(=O)N[C@@H](CCCCNC(=O)COCCOCCNC(=O)COCCOCCNC(=O)CC[C@H](NC(=O)CCCCCCCCCCCCCCCCC(=O)O)C(=O)O)C(=O)N[C@@H](Cc1c[nH]c2ccccc12)C(=O)N[C@@H](CC(C)C)C(=O)N[C@@H](CC(C)C)C(=O)N[C@@H](CC(N)=O)C(=O)N[C@H](C(=O)O)[C@@H](C)O)C(C)C` [Example 4] (H-HSQGTFTSDYSKYLDSKRAQEFVK([AEEA-AEEA-γGlu-C18 diacid])WLLNT-OH; N-terminus and C-terminus assumed) is 0.022 nM.
The figure for `CC(C)C[C@H](NC(=O)[C@H](Cc1ccc(O)cc1)NC(=O)[C@H](CCCCN)NC(=O)[C@H](CO)NC(=O)[C@H](Cc1ccc(O)cc1)NC(=O)[C@H](CC(=O)O)NC(=O)[C@H](CO)NC(=O)[C@@H](NC(=O)[C@H](Cc1ccccc1)NC(=O)[C@@H](NC(=O)[C@@H](Cc1ccccc1)NC(=O)[C@H](CCC(N)=O)NC(=O)[C@H](CO)NC(=O)[C@@H](N)Cc1c[nH]cn1)[C@@H](C)O)[C@@H](C)O)C(=O)N[C@@H](CC(=O)O)C(=O)N[C@@H](CO)C(=O)N[C@@H](CCCNC(=N)N)C(=O)N[C@@H](CCCNC(=N)N)C(=O)N[C@@H](C)C(=O)N[C@@H](CCC(N)=O)C(=O)N[C@@H](CC(=O)O)C(=O)N[C@@H](Cc1ccccc1)C(=O)N[C@H](C(=O)N[C@@H](CCCCNC(=O)CC[C@H](NC(=O)CC[C@H](NC(=O)COCCOCCNC(=O)COCCOCCNC(=O)CC[C@H](NC(=O)CCCCCCCCCCCCCCCCC(=O)O)C(=O)O)C(=O)O)C(=O)O)C(=O)N[C@@H](Cc1c[nH]c2ccccc12)C(=O)N[C@@H](CC(C)C)C(=O)N[C@@H](CC(C)C)C(=O)N[C@@H](CO)C(=O)N[C@H](C(=O)O)[C@@H](C)O)C(C)C` [Example 99, N^ε24-[(4S)-4-carboxy-4-[[(4S)-4-carboxy-4-[[2-[2-[2-[[2-[2-[2-[[(4S)-4-carboxy-4-(17-carboxyheptadecanoylamino)butanoyl]amino]ethoxy]ethoxy]acetyl]amino]ethoxy]ethoxy]acetyl]amino]butanoyl]amino]butanoyl]-[D-Phe4,Lys24,Leu27,Ser28]-Glucagon] (H-HSQ[dF]TFTSDYSKYLDSRRAQDFVK([γGlu-γGlu-AEEA-AEEA-γGlu-C18 diacid])WLLST-OH) is 0.044 nM; for `CC(C)C[C@H](NC(=O)[C@H](Cc1ccc(O)cc1)NC(=O)[C@H](CCCNC(=N)N)NC(=O)[C@H](CO)NC(=O)[C@H](Cc1ccc(O)cc1)NC(=O)[C@H](CC(=O)O)NC(=O)[C@H](CO)NC(=O)[C@@H](NC(=O)[C@H](Cc1ccccc1)NC(=O)[C@@H](NC(=O)CNC(=O)[C@H](CCC(N)=O)NC(=O)[C@H](CO)NC(=O)[C@@H](N)Cc1c[nH]cn1)[C@@H](C)O)[C@@H](C)O)C(=O)N[C@@H](CC(=O)O)C(=O)N[C@@H](CO)C(=O)N[C@@H](CCCNC(=N)N)C(=O)N[C@@H](CCCNC(=N)N)C(=O)N[C@@H](C)C(=O)N[C@@H](CCC(N)=O)C(=O)N[C@@H](CC(=O)O)C(=O)N[C@@H](Cc1ccccc1)C(=O)N[C@H](C(=O)N[C@@H](CCCCNC(=O)CC[C@H](NC(=O)CC[C@H](NC(=O)COCCOCCNC(=O)COCCOCCNC(=O)CC[C@H](NC(=O)CCCCCCCCCCCCCCCCC(=O)O)C(=O)O)C(=O)O)C(=O)O)C(=O)N[C@@H](Cc1c[nH]c2ccccc12)C(=O)N[C@@H](CC(C)C)C(=O)N[C@@H](CC(C)C)C(=O)N[C@@H](CC(N)=O)C(=O)N[C@H](C(=O)O)[C@@H](C)O)C(C)C` [Example 72, N^ε24-[(4S)-4-carboxy-4-[[(4S)-4-carboxy-4-[[2-[2-[2-[[2-[2-[2-[[(4S)-4-carboxy-4-(17-carboxyheptadecanoylamino)butanoyl]amino]ethoxy]ethoxy]acetyl]amino]ethoxy]ethoxy]acetyl]amino]butanoyl]amino]butanoyl]-[Arg^12,Lys^24,Leu^27]-Glucagon] (H-HSQGTFTSDYSRYLDSRRAQDFVK([γGlu-γGlu-AEEA-AEEA-γGlu-C18 diacid])WLLNT-OH; N-terminus and C-terminus assumed) it is 0.127 nM; for `CC(C)C[C@H](NC(=O)[C@H](Cc1ccc(O)cc1)NC(=O)[C@H](CCCCN)NC(=O)[C@H](CO)NC(=O)[C@H](Cc1ccc(O)cc1)NC(=O)[C@H](CC(=O)O)NC(=O)[C@H](CO)NC(=O)[C@@H](NC(=O)[C@H](Cc1ccccc1)NC(=O)[C@@H](NC(=O)CNC(=O)[C@H](CCC(N)=O)NC(=O)[C@H](CO)NC(=O)[C@@H](N)Cc1c[nH]cn1)[C@@H](C)O)[C@@H](C)O)C(=O)N[C@@H](CC(=O)O)C(=O)N[C@@H](CO)C(=O)N[C@@H](CCCCN)C(=O)N[C@@H](CCCNC(=N)N)C(=O)N[C@@H](C)C(=O)N[C@@H](CCC(N)=O)C(=O)N[C@@H](CCC(=O)O)C(=O)N[C@@H](Cc1ccccc1)C(=O)N[C@H](C(=O)N[C@@H](CCC(N)=O)C(=O)N[C@@H](Cc1c[nH]c2ccccc12)C(=O)N[C@@H](CC(C)C)C(=O)N[C@@H](CCCCNC(=O)COCCOCCNC(=O)COCCOCCNC(=O)CC[C@H](NC(=O)CCCCCCCCCCCCCCCCC(=O)O)C(=O)O)C(=O)N[C@@H](CC(N)=O)C(=O)N[C@H](C(N)=O)[C@@H](C)O)C(C)C` [Example 45, N^ε27 ([2-[2-[2-[[2-[2-[2-[[(4S)-5-hydroxy-4-[(18-hydroxy-18-oxooctadecanoyl)amino]-5-oxopentanoyl]amino]ethoxy]ethoxy]acetyl]amino]ethoxy]ethoxy]acetyl]) [Lys^17, Glu^21, Lys^27] Glucagon peptide amide] (H-HSQGTFTSDYSKYLDSKRAQEFVQWLK([AEEA-AEEA-γGlu-C18 diacid])NT-NH2; N-terminus assumed) it is 0.007 nM.
`CC(C)C[C@H](NC(=O)[C@H](Cc1c[nH]c2ccccc12)NC(=O)[C@H](CCCCNC(=O)COCCOCCNC(=O)COCCOCCNC(=O)CC[C@H](NC(=O)CCCCCCCCCCCCCCCCC(=O)O)C(=O)O)NC(=O)[C@@H](NC(=O)[C@H](Cc1ccccc1)NC(=O)[C@H](CC(=O)O)NC(=O)[C@H](CCC(N)=O)NC(=O)[C@H](C)NC(=O)[C@H](CCCNC(=N)N)NC(=O)[C@H](CCCNC(=N)N)NC(=O)[C@@H](NC(=O)[C@H](CC(=O)O)NC(=O)[C@H](CC(C)C)NC(=O)[C@H](Cc1ccc(O)cc1)NC(=O)[C@H](CCCCN)NC(=O)[C@H](CO)NC(=O)[C@H](Cc1ccc(O)cc1)NC(=O)[C@H](CC(=O)O)NC(=O)[C@H](CO)NC(=O)[C@@H](NC(=O)[C@H](Cc1ccccc1)NC(=O)[C@@H](NC(=O)CNC(=O)[C@H](CCC(N)=O)NC(=O)[C@H](CO)NC(=O)[C@@H](N)Cc1c[nH]cn1)[C@@H](C)O)[C@@H](C)O)[C@@H](C)O)C(C)C)C(=O)N[C@@H](CC(C)C)C(=O)N[C@@H](CO)C(=O)N[C@H](C(=O)O)[C@@H](C)O` [Example 13] (H-HSQGTFTSDYSKYLDTRRAQDFVK([AEEA-AEEA-γGlu-C18 diacid])WLLST-OH; N-terminus and C-terminus assumed) came in with an EC50 of 0.016 nM.
